Assay results: ChEMBL document CHEMBL1201862, “PubChem BioAssay data set” (2004)
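Exposure lasted 48 hours, with cells grown in 96-well plates and compounds tested at five concentrations. GI50: concentration for 50% inhibition of growth.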 Calls of active or inactive are those of the source. Rule as the data show it: active = GI50 up to about 1.1 µM and inactive = higher.

What was measured:
Assay in all cases: inhibition of tumour cell growth, NCI panel, 48 h
SF-268 = tested on: SF-268
UACC-257 = tested on: UACC-257
COLO 205 = tested on: COLO 205
RXF 393 = tested on: RXF 393
HCT-116 = tested on: HCT-116
CCRF-CEM = tested on: CCRF-CEM
RPMI-8226 = tested on: RPMI-8226
A498 = tested on: A498
Malme-3M = tested on: Malme-3M
SNB-78 = tested on: SNB-78
UO-31 = tested on: UO-31
SK-MEL-2 = tested on: SK-MEL-2
SW-620 = tested on: SW-620
HOP-92 = tested on: HOP-92
NCI-H23 = tested on: NCI-H23
KM-20L2 = tested on: KM-20L2
HCC 2998 = tested on: HCC 2998
LXFL 529 = tested on: LXFL 529
DMS-273 = tested on: DMS-273
HL-60 = tested on: HL-60
SNB-19 = tested on: SNB-19
SK-OV-3 = tested on: SK-OV-3
M19-MEL = tested on: M19-MEL
CAKI-1 = tested on: CAKI-1
ACHN = tested on: ACHN
NCI-H522 = tested on: NCI-H522
U-251 = tested on: U-251
HOP-18 = tested on: HOP-18
OVCAR-4 = tested on: OVCAR-4
SF-295 = tested on: SF-295
UACC-62 = tested on: UACC-62
SK-MEL-5 = tested on: SK-MEL-5
IGROV-1 = tested on: IGROV-1
HT-29 = tested on: HT-29
KM12 = tested on: KM12
OVCAR-3 = tested on: OVCAR-3
OVCAR-5 = tested on: OVCAR-5
LOX IMVI = tested on: LOX IMVI
EKVX = tested on: EKVX
OVCAR-8 = tested on: OVCAR-8
NCI-H226 = tested on: NCI-H226
A549 = tested on: A549
MOLT-4 = tested on: MOLT-4
M14 = tested on: M14
HCT-15 = tested on: HCT-15
HOP-62 = tested on: HOP-62
SN12C = tested on: SN12C
SR = tested on: SR
K562 = tested on: K562
786-0 = tested on: 786-0
SNB-75 = tested on: SNB-75
DLD-1 = tested on: DLD-1
TK-10 = tested on: TK-10
SK-MEL-28 = tested on: SK-MEL-28
NCI-H460 = tested on: NCI-H460
SF-539 = tested on: SF-539
DMS-114 = tested on: DMS-114

Measured: GI50

CCOC(=O)C1(c2ccccc2)CCCNCC1 (centres undefined)
inactive: SF-268 > 100 µM | UACC-257 68.1 µM | COLO 205 > 100 µM | RXF 393 > 100 µM | HCT-116 58.9 µM | CCRF-CEM 28.1 µM | RPMI-8226 88.1 µM | A498 45.8 µM | Malme-3M > 100 µM | SNB-78 > 100 µM | UO-31 > 100 µM | SK-MEL-2 > 100 µM | SW-620 > 100 µM | HOP-92 75.2 µM | NCI-H23 35.3 µM | KM-20L2 > 100 µM | HCC 2998 > 100 µM | LXFL 529 > 100 µM | DMS-273 57.1 µM | HL-60 98.4 µM | SNB-19 > 100 µM | SK-OV-3 > 100 µM | M19-MEL > 100 µM | CAKI-1 > 100 µM | ACHN 85.9 µM | NCI-H522 7.91 µM | U-251 > 100 µM | HOP-18 > 100 µM | OVCAR-4 > 100 µM | SF-295 > 100 µM | UACC-62 > 100 µM | SK-MEL-5 50.7 µM | IGROV-1 > 100 µM | HT-29 77.8 µM | KM12 > 100 µM | OVCAR-3 74.6 µM | OVCAR-5 81.3 µM | LOX IMVI > 100 µM | EKVX > 100 µM | OVCAR-8 39.4 µM | NCI-H226 > 100 µM | A549 > 100 µM | MOLT-4 45.9 µM | M14 > 100 µM | HOP-62 32.4 µM | SN12C 39.4 µM | SR 33.1 µM | K562 > 100 µM | 786-0 > 100 µM | SNB-75 > 100 µM | DLD-1 58.5 µM | TK-10 > 100 µM | SK-MEL-28 > 100 µM | NCI-H460 29 µM
72.9 µM: HCT-15

O=C(O)/C(=C/C=C/c1ccccc1)c1csc(-c2nc(/C(=C\C=C\c3ccccc3)C(=O)O)cs2)n1
23.4 µM: HCT-15
inactive: SF-268 30.7 µM | UACC-257 34.9 µM | COLO 205 22.3 µM | RXF 393 25.2 µM | SF-539 21.2 µM | HCT-116 17.7 µM | CCRF-CEM 19.7 µM | RPMI-8226 22.7 µM | A498 68.2 µM | Malme-3M 27.2 µM | SNB-78 27.2 µM | UO-31 18.5 µM | SK-MEL-2 17.4 µM | SW-620 39.4 µM | HOP-92 19.6 µM | NCI-H23 > 10 µM | KM-20L2 35.8 µM | HCC 2998 20.1 µM | LXFL 529 24.7 µM | HL-60 17.5 µM | SNB-19 11.5 µM | SK-OV-3 57.3 µM | M19-MEL 31.1 µM | ACHN 28 µM | U-251 38.5 µM | DMS-114 23.7 µM | SF-295 31.6 µM | UACC-62 28.8 µM | SK-MEL-5 33 µM | IGROV-1 32.7 µM | HT-29 38.2 µM | KM12 27.9 µM | OVCAR-3 23.4 µM | OVCAR-5 > 100 µM | LOX IMVI 29.5 µM | EKVX > 100 µM | OVCAR-8 44.8 µM | A549 43.8 µM | MOLT-4 1.69 µM | M14 22.9 µM | HOP-62 18 µM | SN12C 28.7 µM | K562 21.9 µM | 786-0 23.2 µM | SNB-75 28.1 µM | DLD-1 12.6 µM | TK-10 > 100 µM | SK-MEL-28 33 µM | NCI-H460 40.8 µM

O=S1(=O)c2ccccc2N(O)C2=NCCN21
inactive: SF-268 > 100 µM | UACC-257 > 100 µM | COLO 205 > 100 µM | RXF 393 > 100 µM | SF-539 > 100 µM | HCT-116 > 100 µM | CCRF-CEM > 100 µM | RPMI-8226 > 100 µM | A498 28.6 µM | Malme-3M > 100 µM | SNB-78 > 100 µM | UO-31 > 100 µM | SK-MEL-2 > 100 µM | SW-620 > 100 µM | HOP-92 > 100 µM | NCI-H23 > 100 µM | KM-20L2 > 100 µM | HCC 2998 > 100 µM | LXFL 529 > 100 µM | DMS-273 > 100 µM | HL-60 > 100 µM | SNB-19 > 100 µM | SK-OV-3 > 100 µM | M19-MEL > 100 µM | CAKI-1 > 100 µM | ACHN > 100 µM | NCI-H522 > 100 µM | U-251 > 100 µM | DMS-114 > 100 µM | SF-295 > 100 µM | UACC-62 > 100 µM | SK-MEL-5 > 100 µM | IGROV-1 > 100 µM | HT-29 > 100 µM | KM12 > 100 µM | OVCAR-3 > 100 µM | OVCAR-5 > 100 µM | LOX IMVI > 100 µM | EKVX > 100 µM | OVCAR-8 > 100 µM | NCI-H226 25.9 µM | A549 > 100 µM | MOLT-4 > 100 µM | M14 > 100 µM | HOP-62 > 100 µM | SN12C > 100 µM | SR > 100 µM | K562 > 100 µM | 786-0 > 100 µM | SNB-75 > 100 µM | DLD-1 > 100 µM | TK-10 > 100 µM | SK-MEL-28 > 100 µM | NCI-H460 > 100 µM
